Counter-ions that a name gives are not always drawn.
Target: T1, RET (Homo sapiens, UniProt P07949)
T1 construct: purchased Upstate 14-570MG
Test: Inhibition of RET kinase activity, recombinant RET method (Kinase-Glo)
Type: biochemical
Settings: RET 2 μg/ml, poly-EY4 substrate, 20 μM ATP, two hours at 30° C.
Method in brief: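 Recombinant RET at 2 μg/ml in 20 mM MOPS/NaOH pH 7.0, 1 mM EDTA, 5% glycerol, 0.01% Brij35, 0.1% 2-mercaptoethanol, 1 mg/ml BSA; compounds 10 nM–30 μM final.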

T1 sequence (P07949 29-1114): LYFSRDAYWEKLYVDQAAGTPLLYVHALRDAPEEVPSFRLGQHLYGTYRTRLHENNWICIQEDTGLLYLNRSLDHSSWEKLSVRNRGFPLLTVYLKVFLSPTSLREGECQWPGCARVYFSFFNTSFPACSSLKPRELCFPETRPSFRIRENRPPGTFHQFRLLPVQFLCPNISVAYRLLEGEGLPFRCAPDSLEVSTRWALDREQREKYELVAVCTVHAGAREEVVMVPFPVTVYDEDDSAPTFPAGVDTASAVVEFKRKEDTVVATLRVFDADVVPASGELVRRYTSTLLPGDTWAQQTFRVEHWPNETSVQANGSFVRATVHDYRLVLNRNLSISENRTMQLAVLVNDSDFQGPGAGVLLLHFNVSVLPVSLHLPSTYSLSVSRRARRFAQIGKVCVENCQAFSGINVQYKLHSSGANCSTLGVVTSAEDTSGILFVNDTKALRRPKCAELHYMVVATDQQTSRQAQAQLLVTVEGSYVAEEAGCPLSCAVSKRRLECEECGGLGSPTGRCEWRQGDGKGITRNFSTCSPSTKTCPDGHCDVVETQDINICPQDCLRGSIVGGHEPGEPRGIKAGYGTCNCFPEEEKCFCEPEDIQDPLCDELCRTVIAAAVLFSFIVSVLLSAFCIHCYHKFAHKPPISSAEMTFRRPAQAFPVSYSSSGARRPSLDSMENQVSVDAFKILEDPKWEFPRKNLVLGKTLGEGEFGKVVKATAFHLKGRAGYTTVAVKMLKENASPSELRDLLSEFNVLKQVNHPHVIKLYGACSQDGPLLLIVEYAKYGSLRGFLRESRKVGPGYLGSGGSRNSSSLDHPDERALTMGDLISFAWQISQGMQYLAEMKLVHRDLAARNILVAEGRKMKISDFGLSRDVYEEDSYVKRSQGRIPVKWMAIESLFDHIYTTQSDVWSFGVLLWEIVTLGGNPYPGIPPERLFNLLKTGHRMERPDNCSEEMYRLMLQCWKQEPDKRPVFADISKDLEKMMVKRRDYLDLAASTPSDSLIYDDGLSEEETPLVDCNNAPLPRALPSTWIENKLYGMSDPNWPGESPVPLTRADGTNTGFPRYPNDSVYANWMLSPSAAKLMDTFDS

| Structure (SMILES) | IC50 |
| --- | --- |
| CCCOC(=O)c1c[nH]c2c(=O)[nH]c3ccc(S(=O)(=O)N(C)CCN4CCCC4)cc3c12 [Compound 137, 8-[Methyl-(2-pyrrolidin-1-yl-ethyl)-sulfamoyl]-4-oxo-4,5-dihydro-3H-pyrrolo[2,3-c]quinoline-1-propyl carboxylate] | 100 to 1000 nM |
| CCOC(=O)c1c[nH]c2c(=O)[nH]c3cc(OC)c(OC)cc3c12 [Compound 72, 7,8-Dimethoxy-4-oxo-4,5-dihydro-3H-pyrrolo[2,3-c]quinoline-1-ethyl carboxylate] | 1000 to 10000 nM |
| CCOC(=O)c1c[nH]c2c(=O)[nH]c3ccc(F)cc3c12 [Compound 99, 8-Fluoro-4-oxo-4,5-dihydro-3H-pyrrolo[2,3-c]quinoline-1-ethyl carboxylate] | 10000 to 100000 nM |
| CCOC(=O)c1c[nH]c2c(=O)[nH]c3ccc(S(=O)(=O)Cc4ccncc4)cc3c12 [Compound 195, 4-Oxo-8-(pyridin-4-ylmethanesulfonyl)-4,5-dihydro-3H-pyrrolo[2,3-c]quinoline-1-ethyl carboxylate] | 100 to 1000 nM |
| CN(CC(N)=O)S(=O)(=O)c1ccc2[nH]c(=O)c3[nH]cc(C(=O)O)c3c2c1 [Compound 178, 8-(Carbamoylmethyl-methyl-sulfamoyl)-4-oxo-4,5-dihydro-3H-pyrrolo[2,3-c]quinoline-1-carboxylic acid] | 1000 to 10000 nM |
| CCOC(=O)c1c[nH]c2c(=O)[nH]c3ccc(S(=O)(=O)N(C)C)cc3c12 [Compound 26, 8-Dimethylsulfamoyl-4-oxo-4,5-dihydro-3H-pyrrolo[2,3-c]quinoline-1-ethyl carboxylate] | 100 to 1000 nM |
| CCOC(=O)c1c[nH]c2c(=O)[nH]c3ccc(NS(=O)(=O)c4cccc(Cl)c4)cc3c12 [Compound 41, 8-(3-Chloro-benzenesulfonylamino)-4-oxo-4,5-dihydro-3H-pyrrolo[2,3-c]quinoline-1-ethyl carboxylate] | 100 to 1000 nM |
| CCCOC(=O)c1c[nH]c2c(=O)[nH]c3ccc(S(=O)(=O)N(C)CC4OCCO4)cc3c12 [Compound 129, 8-[1,3]Dioxolan-2-ylmethyl-methyl-sulfamoyl)-4-oxo-4,5-dihydro-3H-pyrrolo[2,3-c]quinoline-1-propyl carboxylate] | 100 to 1000 nM |
| CNC(=O)c1c[nH]c2c(=O)[nH]c3ccccc3c12 [Compound 88, N-(Methyl)-4-oxo-4,5-dihydro-3H-pyrrolo[2,3-c]quinoline-1-carboxamide] | 10000 to 100000 nM |
| CCCOC(=O)c1c[nH]c2c(=O)[nH]c3ccc(S(=O)(=O)N(C)C4CCOCC4)cc3c12 [Compound 133, 8-[Methyl-(tetrahydro-pyran-4-yl)-sulfamoyl]-4-oxo-4,5-dihydro-3H-pyrrolo[2,3-c]quinoline-1-propyl carboxylate] | < 100 nM |
| CCOC(=O)c1c[nH]c2c(=O)[nH]c3ccc(-c4cccc(NC(C)=O)c4)cc3c12 [Compound 236, 8-(3-Acetylaminophenyl)-4-oxo-4,5-dihydro-3H-pyrrolo[2,3-c]quinoline-1-ethyl carboxylate] | 100 to 1000 nM |
| C#CCN(CCO)S(=O)(=O)c1ccc2[nH]c(=O)c3[nH]cc(C(=O)OCCC)c3c2c1 [Compound 175, 8-[(2-Hydroxy-ethyl)-prop-2-ynyl-sulfamoyl]-4-oxo-4,5-dihydro-3H-pyrrolo[2,3-c]quinoline-1-propyl carboxylate] | 100 to 1000 nM |
| CN(c1ccc(F)cc1)S(=O)(=O)c1ccc2[nH]c(=O)c3[nH]cc(C(=O)OCCCNC(=O)OC(C)(C)C)c3c2c1 [Compound 108, 3-tert-Butoxycarbonylamino-propyl 8-[(4-fluorophenyl)-methyl-sulfamoyl]-4-oxo-4,5-dihydro-3H-pyrrolo[2,3-c]quinoline-1-carboxylate] | 10000 to 100000 nM |
| CCCOC(=O)c1c[nH]c2c(=O)[nH]c3ccc(S(=O)(=O)N(C[C@H]4CCCN4)C4CC4)cc3c12 [Compound 148, (R)-8-(Cyclopropyl-pyrrolidin-2-ylmethyl-sulfamoyl)-4-oxo-4,5-dihydro-3H-pyrrolo[2,3-c]quinoline-1-propyl carboxylate hydrochloride] | 100 to 1000 nM |
| CCOC(=O)c1c[nH]c2c(=O)[nH]c3ccc(S(=O)(=O)Nc4ccc(N)cc4)cc3c12 [Compound 20, 8-(4-Aminophenylsulfamoyl)-4-oxo-4,5-dihydro-3H-pyrrolo[2,3-c]quinoline-1-ethyl carboxylate] | < 100 nM |
| CCOC(=O)c1c[nH]c2c(=O)[nH]c3ccc(S(=O)(=O)Cc4c(Cl)cccc4Cl)cc3c12 [Compound 36, 8-(2,6-Dichlorophenylmethanesulfonyl)-4-oxo-4,5-dihydro-3H-pyrrolo[2,3-c]quinoline-1-ethyl carboxylate] | 100 to 1000 nM |
| CCOC(=O)c1c[nH]c2c(=O)[nH]c3ccc(-c4ccccc4NC(=O)OC(C)(C)C)cc3c12 [Compound 230, 8-(2-tert-Butoxycarbonylaminophenyl)-4-oxo-4,5-dihydro-3H-pyrrolo[2,3-c]quinoline-1-ethyl carboxylate] | 10000 to 100000 nM |
| COC(=O)c1c[nH]c2c(=O)[nH]c3ccc(S(=O)(=O)NC4CCCC4)cc3c12 [Compound 92, 8-Cyclopentylsulfamoyl-4-oxo-4,5-dihydro-3H-pyrrolo[2,3-c]quinoline-1-methyl carboxylate] | 1000 to 10000 nM |

| Structure (SMILES) | IC50 |
| --- | --- |
| CCOC(=O)c1c[nH]c2c(=O)[nH]c3ccc(Sc4cccc(N)c4)cc3c12 [Compound 224, 8-(3-Aminophenylsulfanyl)-4-oxo-4,5-dihydro-3H-pyrrolo[2,3-c]quinoline-1-ethyl carboxylate] | 100 to 1000 nM |
| CCOC(=O)c1c[nH]c2c(=O)[nH]c3ccc(-c4ccc5[nH]ccc5c4)cc3c12 [Compound 252, 8-(1H-Indol-5-yl)-4-oxo-4,5-dihydro-3H-pyrrolo[2,3-c]quinoline-1-ethyl carboxylate] | 100 to 1000 nM |
| CCOC(=O)c1c[nH]c2c(=O)[nH]c3ccc(S(=O)(=O)NC4CC5CCC(C4)N5)cc3c12 (stereo not drawn) [Compound 122, 8-(8-Aza-bicyclo[3.2.1]oct-3-ylsulfamoyl)-4-oxo-4,5-dihydro-3H-pyrrolo[2,3-c]quinoline-1-ethyl carboxylate] | < 100 nM |
| CCOC(=O)c1c[nH]c2c(=O)[nH]c3ccc(C#Cc4ccccn4)cc3c12 [Compound 202, 4-Oxo-8 pyridin-2-ylethynyl-4,5-dihydro-3H-pyrrolo[2,3-c]quinoline-1-ethyl carboxylate] | 1000 to 10000 nM |
| CCOC(=O)c1c[nH]c2c(=O)[nH]c3ccc(-c4ccccc4NS(C)(=O)=O)cc3c12 [Compound 232, 8-(2-Methanesulfonylaminophenyl)-4-oxo-4,5-dihydro-3-pyrrolo[2,3-c]quinoline-1-ethyl carboxylate] | 100 to 1000 nM |
| CCCOC(=O)c1c[nH]c2c(=O)[nH]c3ccc(S(=O)(=O)N4CC[C@H](NC(=O)OC(C)(C)C)C4)cc3c12 [Compound 164, (S)-8-(3-tert-Butoxycarbonylamino-pyrrolidine-1-sulfonyl)-4-oxo-4,5-dihydro-3H-pyrrolo[2,3-c]quinoline-1-propyl carboxylate] | 1000 to 10000 nM |
| CCOC(=O)c1c[nH]c2c(=O)[nH]c3ccc(S(=O)(=O)N(C)c4ccc(F)cc4)cc3c12 [Compound 13, 8-[(4-Fluorophenyl)-N-methyl-sulfamoyl)-4-oxo-4,5-dihydro-3H-pyrrolo[2,3-c]quinoline-1-ethyl carboxylate] | < 100 nM |
| CCOC(=O)c1c[nH]c2c(=O)[nH]c3ccc(S(=O)(=O)N(C)CCc4ccccc4)cc3c12 [Compound 25, 8-(Methyl-phenethyl-sulfamoyl)-4-oxo-4,5-dihydro-3H-pyrrolo[2,3-c]quinoline-1-ethyl carboxylate] | 1000 to 10000 nM |
| O=C(OC1CCCC1)c1c[nH]c2c(=O)[nH]c3ccc(I)cc3c12 [Compound 211, 8-Iodo-4-oxo-4,5-dihydro-3H-pyrrolo[2,3-c]quinoline-1-cyclopentyl carboxylate] | 1000 to 10000 nM |
| CCOC(=O)c1c[nH]c2c(=O)[nH]c3ccc(C#CCN(C)CCC#N)cc3c12 [Compound 206, 8-{3-[(2-Cyano-ethylmethyl-amino]-prop-1-ynyl}-4-oxo-4,5-dihydro-3H-pyrrolo[2,3-c]quinoline-1-ethyl carboxylate] | 100 to 1000 nM |
| CCOC(=O)c1c[nH]c2c(=O)[nH]c3ccc(-c4cccc5ccccc45)cc3c12 [Compound 249, 8-Naphthalen-1-yl-4-oxo-4,5-dihydro-3H-pyrrolo[2,3-c]quinoline-1-ethyl carboxylate] | 100 to 1000 nM |
| CCCOC(=O)c1c[nH]c2c(=O)[nH]c3ccc(S(=O)(=O)N(CC)[C@H]4CCN(C)C4)cc3c12 [Compound 161, (S)-8-[Ethyl-(1-methyl-pyrrolidin-3-yl)-sulfamoyl]-4-oxo-4,5-dihydro-3H-pyrrolo[2,3-c]quinoline-1-propyl carboxylate] | < 100 nM |
| CCOC(=O)c1c[nH]c2c(=O)[nH]c3ccc(S(=O)(=O)Cc4ccccn4)cc3c12 [Compound 196, 4-Oxo-8-(pyridin-2-ylmethanesulfonyl)-4,5-dihydro-3H-pyrrolo[2,3-c]quinoline-1-ethyl carboxylate] | 100 to 1000 nM |
| O=C(c1ccccc1)c1c[nH]c2c(=O)[nH]c3ccccc3c12 [Compound 76, 1-Benzoyl-3,5-dihydro-pyrrolo[2,3-c]quinolin-4-one] | 1000 to 10000 nM |
| CCOC(=O)c1c[nH]c2c(=O)[nH]c3cc(OC)ccc3c12 [Compound 213, 7-Methoxy-4-oxo-4,5-dihydro-3H-pyrrolo[2,3-c]quinoline-1-ethyl carboxylate] | 1000 to 10000 nM |
| CCOC(=O)c1c[nH]c2c(=O)[nH]c3ccc(NS(=O)(=O)c4ccc(OC)cc4)cc3c12 [Compound 50, 8-(4-Methoxy-benzenesulfonylamino)-4-oxo-4,5-dihydro-3H-pyrrolo[2,3-c]quinoline-1-ethyl carboxylate] | 1000 to 10000 nM |
| CCOC(=O)c1c[nH]c2c(=O)[nH]c3ccc(S(=O)(=O)Cc4ccccc4)cc3c12 [Compound 35, 4-Oxo-8-phenylmethanesulfonyl-4,5-dihydro-3H-pyrrolo[2,3-c]quinoline-1-ethyl carboxylate] | < 100 nM |
| CCOC(=O)c1c[nH]c2c(=O)[nH]c3ccc(C(=O)/C=C/N(C)C)cc3c12 [Compound 217, 8-(3-Dimethylamino-acryloyl)-4-oxo-4,5-dihydro-3H-pyrrolo[2,3-c]quinoline-1-ethyl carboxylate] | 100 to 1000 nM |
